Results taken from patent publication US20160151403A1, “SMALL MOLECULE MODULATORS OF P53 FAMILY SIGNALING” (The Trustees of the University of Pennsylvania, priority 2006, published 2016).
“Also recorded” adds a separate entry of the source.

What was measured:
[1] = tested on: p53 protein expression in HCT116 cells; test: Western blot of p53 protein in parental HCT116 cells; type: cell-based, human; settings: FIG. 2A
Procedure: (§1) Cells were collected and protein concentration was quantified by the Bio-Rad protein assay prior to SDS-PAGE. Proteins were transferred to a PVDF membrane (Immobilon-P, Millipore Corporation, Bedford, Mass.) by a semi-dry transfer apparatus (Bio-Rad Laboratories, Hercules, Calif.). The membranes with transferred proteins were blotted with 10% W/V non-fat dry milk and then incubated with the primary antibody and subsequently secondary antibodies, which were labelled by horseradish peroxidase, or infrared dyes (IR). Signals were visualized by either ECL (Amersham Pharmacia Biotech, England, UK) and exposed to an X-ray film, or scanned by the Odyssey Infared Imaging System (LI-COR Biosciences, Lincoln, Nebr.). Anti-p53, DO-1, was from Santa Cruz biotechnology, Inc. (Santa Cruz, Calif.), anti-p73 (AB-1) and anti-p21 (AB-1) were obtained from Calbiochem (San Diego, Calif.). Anti-ser20 of p53 Cell were obtained from Signaling Technology (Danvers, Mass.) and anti-DR5 antibody was obtained from Cayman Chemical (Ann Arbor, Mich.).
(§2) The chemical library screening was directed at restoring “p53 responses” in p53-deficient cells. The small molecules identified by the cell-based screening procedure appeared to be able to restore p53 responses in p53-deficient colon tumors and to eliminate viable cells. Their function was further tested on wild-type p53-expressing and p53-knockout HCT116 colon adenocarcinoma cell lines. A number of candidate modulators of signaling by the p53 family appeared to induce expression of p53 target genes such as p21 or DR5(13) either with or without stabilizing p53 protein in HCT116 cells (FIG. 2A).

[2] = tested on: DR5 and p21 in HCT116/p53(+/+) cells; test: Western blot of p53 target genes DR5 and p21 in HCT116/p53(+/+) cells; type: cell-based, human; settings: parental HCT116 (p53+/+) cells, FIG. 2A
Procedure: (§3) FIGS. 2A-2B show protein levels of p53 target genes p21 and DR5 were induced by selected compounds in HCT/p53(+/+) cells (A) or HCT/p53(−/−) cells (B). In A, doses of compounds (μM) are listed above each lane. Cells treated with compounds were harvested and lysed for SDS-PAGE and immunoblotted with p21 or DR5 antibodies. Ran was used as a protein loading control. Doses of compounds in B were as follows: 2 μM for #15, 12 μM for #1 and #23, 20 μM for #20 and #32, 100 μM for #33, 200 μM for #5, #8, #12, #16, #17, and #22, and 400 μM for #3. The dose for adriamycin was 0.2 μg/ml. Cells were incubated for 16 hours at 37° C. with the various drugs prior to cell harvest;
as §1, §2

[3] = tested on: DR5 and p21 in HCT116/p53(−/−) cells; test: Western blot of p53 target genes DR5 and p21 in HCT116/p53(-/-) cells; type: cell-based, human; settings: p53-null HCT116 cells, 16 hours, doses per compound in FIG. 2B
Procedure: as §3, §1
A number of selected compounds was further tested on HCT116/p53^−/− cells to verify the possibility of induction of p53 target gene expression in the absence of p53. […] The importance of this observation is in establishing that it is possible to identify small molecules with the potential to induce p53 target gene expression in p53-deficient cells.

HCT116/p53^+/+ cells = test: Flow cytometry cell cycle profile, HCT116/p53(+/+); type: cell-based, human; settings: #17 200 μM, #23 10 μM
Procedure: (§4) FIGS. 3A-3F show: Structures (A) of isolated compounds and summary of their effects on the p53 family and transcriptional targets (B). Cell cycle profiles of HCT/p53(+/+) and HCT/p53(−/−) in response to treatment by selected compounds (C-E). The dose of #17 was 200 μM and for #23 it was 10 μM. F, p73 protein levels were elevated in HCT116/p53(−/−) cells in response to treatment by selected compounds at various concentrations as indicated;
(§5) Adherent cells in a 6-well plate were trypsinized and collected in 15 ml centrifuge tubes to which were added the originally floating cells. The collected cells were ethanol-fixed and stained with propidium iodide (Sigma, St. Louis, Mo.). The DNA content of the stained cells was then measured using an Epics Elite flow cytometer (Beckman-Coulter, Fullerton, Calif.).
(§6) The ability of selected compounds from the chemical library screen to induce apoptosis of human colon tumor cells and the dependence of their effects on endogenous p53 status was further evaluated.

HCT116/p53^−/− cells = test: Flow cytometry cell cycle profile, HCT116/p53(-/-); type: cell-based, human; settings: for sub-G1 peak (apoptosis): HCT116/p53^−/−, #17 200 μM, #23 10 μM
Procedure: as §4, §5, §6

γH2AX = γH2AX test (DNA damage signaling); type: cell-based; settings: after treatment

## CO[C@H]1[C@@H](O)[C@@H](C)O[C@H](O[C@H]2[C@H](Oc3cccc4c(O)c5c(=O)oc6ccc(C)c7c(=O)oc(c34)c5c67)O[C@H](C)[C@H](O)[C@@H]2O)[C@@H]1O [#1]
[1]
  p53 protein expression: increase p53 expression; also recorded: significantly increased p53 protein levels
[2]
  expression of p53 targets DR5 and p21 proteins: increased expression of DR5 and p21 proteins
[3]
  DR5 and p21 expression (p53 target genes): increasing expression of the p53 target genes DR5 and p21; also recorded: strongly induce p53 target gene expression
HCT116/p53^+/+ cells
  sub-G1 peak (apoptosis): induced a sub-G1 peak characteristic of apoptosis
HCT116/p53^−/− cells
  sub-G1 peak (apoptosis): induced a sub-G1 peak characteristic of apoptosis
γH2AX
  γH2AX: not

## COc1cccc2c1C(=O)c1c(O)c3c(c(O)c1C2=O)CC(O)(/C(C)=N/O)CC3OC1CC(N)C(O)C(C)O1 (stereo not shown) [#14]
[1]
  p53 protein expression: increase p53 expression; also recorded: significantly increased p53 protein levels
[2]
  expression of p53 targets DR5 and p21 proteins: increased expression of DR5 and p21 proteins
[3]
  DR5 and p21 expression (p53 target genes): increasing expression of the p53 target genes DR5 and p21; also recorded: strongly induce p53 target gene expression
HCT116/p53^+/+ cells
  sub-G1 peak (apoptosis): induced a sub-G1 peak characteristic of apoptosis
HCT116/p53^−/− cells
  sub-G1 peak (apoptosis): induced a sub-G1 peak characteristic of apoptosis
γH2AX
  γH2AX: positive

## COc1cccc2c1C(=N)c1c(O)c3c(c(O)c1C2=O)C[C@@](O)(C(C)=O)C[C@@H]3O[C@H]1C[C@H](N)[C@H](O)[C@H](C)O1 [#23]
[1]
  p53 protein expression: increase p53 expression; also recorded: significantly increased p53 protein levels
[2]
  expression of p53 targets DR5 and p21 proteins: increased expression of DR5 and p21 proteins
[3]
  DR5 and p21 expression (p53 target genes): increasing expression of the p53 target genes DR5 and p21; also recorded: strongly induce p53 target gene expression
HCT116/p53^+/+ cells
  sub-G1 peak (apoptosis): induced a sub-G1 peak characteristic of apoptosis
HCT116/p53^−/− cells
  sub-G1 peak (apoptosis): induced a sub-G1 peak characteristic of apoptosis
HCT116/p53^−/− cells; p53-null HCT116 cells, compared with wild-type p53-expressing HCT116
  G1 arrest on apoptosis induction: greatly reduced G1 arrest
γH2AX
  γH2AX: positive
